What was measured:
[1] = Inhibiting effect of free radicals: absorbance at 516 nm in the presence of radical diphenyl picryl hydrazide (XI); assay type: biochemical; details: ethanolic solution, 200 micromoles per liter compound, 100 micromoles per liter radical (XI), stirred 30 minutes at 20° C., 1-cm vessel
Description: The antioxidant potential in solution of the compounds (I) is evaluated by measuring their reaction with the free radical diphenyl-picryl-hydrazide (XI) per C. T. Ho, S. Agric. Food Chem. 1999, p. 3975, using methyl gallate as a reference (XII).
The inhibiting effect of free radicals claimed for compounds (Ia) and (Ib) obtained in a pure state was evaluated by measuring their absorbance in UV spectrophotometry at 516 nanometers in the presence of radical diphenyl picryl hydrazide (XI).
We prepared ethanolic solutions containing 200 micromoles per liter of the compound to be tested and 100 micromoles per liter of radical (XI), stirred for 30 minutes at 20° C. and placed in a 1-cm long vessel, and we measured the absorbances.

[2] = Assay of the free radical scavenging activity: addition of radical (XI) solution until purple color, absorbance at 516 nm; assay type: biochemical
Source text: b) Assay of the free radical scavenging activity of amides (Ia) and (Ib):
Under absorbance measurement conditions of 516 nanometers, we placed 2 micromoles of reference or substrate (Ia) and (Ib) under the UV cell.
We introduced a solution of 200 micromoles of radical (XI) until the purple color characteristic of the radical and measured the absorbance of the medium: […]

In the case of `COC(=O)c1cc(O)c(O)c(O)c1` [Methyl gallate, methyl gallate], the “Absorbance at 516 nm” value [1] is reported as 0.06, the “(XI) consumed” value ([2]; 2 micromoles of reference or substrate, solution of 200 micromoles of radical (XI) introduced until purple color) is reported as 27.7 mL and the “Absorbance at 516 nm” value ([2]; absorbance of the medium after addition of radical (XI) until purple color, 2 micromoles of substrate) is reported as 0.34.
